# Assay results: patent US9255101B2 (BIOPROJECT, priority 2012, dated 2016)
# pKi: −log10 of the molar value. Structures can show the parent of a compound that is named as a salt.
# Target: human H4 receptor (Homo sapiens, UniProt Q9H3N8)
# Assay: biochemical
# 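Further: radioligand displacement of a [3H]-labelled ligand from membranes of CHO cells stably expressing human H4 receptor, bound radioactivity counted on filters by liquid scintillation.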
# Sequence of human H4 receptor (Q9H3N8 whole entry): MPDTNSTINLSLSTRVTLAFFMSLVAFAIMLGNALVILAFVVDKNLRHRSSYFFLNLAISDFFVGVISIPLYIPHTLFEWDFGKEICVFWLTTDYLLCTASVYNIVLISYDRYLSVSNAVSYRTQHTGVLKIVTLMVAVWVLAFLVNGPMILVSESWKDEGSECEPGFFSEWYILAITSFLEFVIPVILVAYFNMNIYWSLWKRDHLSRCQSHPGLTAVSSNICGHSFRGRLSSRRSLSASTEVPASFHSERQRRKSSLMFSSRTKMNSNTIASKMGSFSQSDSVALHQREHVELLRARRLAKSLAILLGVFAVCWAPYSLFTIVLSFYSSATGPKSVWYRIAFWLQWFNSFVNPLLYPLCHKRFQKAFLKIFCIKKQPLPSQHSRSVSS
row,SMILES,pKi
1,"CN1CCC(OC2c3ccccc3CCn3cc(C=Cc4cccs4)nc32)CC1 (centres unmarked) [Example 111, 4-(1-methylpiperidin-4-yloxy)-2-(2-thiophen-2-ylvinyl)-9,10-dihydro-4H-3,10a-diaza-benzo[f]azulene]",> 7.52
2,"Cc1c(-c2ccc(NC(=O)OCC(C)C)cc2)nc2n1CCc1ccccc1C2OC1CCN(C)CC1 (centres unmarked) [Example 174, {4-[1-Methyl-4-(1-methyl-piperidin-4-yloxy)-9,10-dihydro-4H-3,10a-diaza-benzo[f]azulen-2-yl]-phenyl}-carbamic acid isobutyl ester]",> 7.52
3,"Cc1c(-c2ccc(C(=O)N3CCC(O)CC3)cc2)nc2n1CCc1ccccc1C2OC1CCN(C)CC1 (centres unmarked) [Example 220, (4-hydroxypiperidin-1-yl)-{4-[1-methyl-4-(1-methylpiperidin-4-yloxy)-9,10-dihydro-4H-3,10a-diaza-benzo[f]azulen-2-yl]-phenyl}-methanone]",> 6.52
4,"CN1CCC(OC2c3ccccc3CCn3cc(-c4ccc(Cl)cc4)nc32)CC1 (centres unmarked) [Example 52, 2-(4-chloro-phenyl)-4-(1-methylpiperidin-4-yloxy)-9,10-dihydro-4H-3,10a-diaza-benzo[f]azulene oxalate]",> 7.52
5,"Cc1c(-c2ccc(N3C(=O)OCC3Cc3ccccc3)cc2)nc2n1CCc1ccccc1C2OC1CCN(C)CC1 (centres unmarked) [Example 176, 4-benzyl-3-{4-[1-methyl-4-(1-methylpiperidin-4-yloxy)-9,10-dihydro-4H-3,10a-diaza-benzo[f]azulen-2-yl]-phenyl}-oxazolidin-2-one]",> 7.52
6,"CN1CCC(OC2c3ccccc3CCn3cc(SC4CCCCC4)nc32)CC1 (centres unmarked) [Example 98, 2-cyclohexylsulfanyl-4-(1-methylpiperidin-4-yloxy)-9,10-dihydro-4H-3,10a-diaza-benzo[f]azulene oxalate]",> 6.52
7,"CN1CCC(OC2c3ccccc3CCn3cc(-c4ccc(N(C)C)cc4)nc32)CC1 (centres unmarked) [Example 35, dimethyl-{4-[4-(1-methylpiperidin-4-yloxy)-9,10-dihydro-4H-3,10a-diaza-benzo[f]azulen-2-yl]-phenyl}-amine oxalate]",> 6.00
8,"CN1CCC(OC2c3ccccc3CCn3cc(C=CCC4CCCC4)nc32)CC1 (centres unmarked) [Example 104, 2-(3-cyclopentylpropenyl)-4-(1-methylpiperidin-4-yloxy)-9,10-dihydro-4H-3,10a-diaza-benzo[f]azulene]",> 7.52
9,"CN1CCC(OC2c3ccccc3CCn3cc(Sc4ccccc4)nc32)CC1 (centres unmarked) [Example 73, 4-(1-methylpiperidin-4-yloxy)-2-phenylsulfanyl-9,10-dihydro-4H-3,10a-diaza-benzo[f]azulene oxalate]",> 6.52
10,"CN1CCC(OC2c3ccccc3CCn3cc(CCCOCc4ccccc4)nc32)CC1 (centres unmarked) [Example 128, 2-(3-benzyloxypropyl)-4-(1-methylpiperidin-4-yloxy)-9,10-dihydro-4H-3,10a-diaza-benzo[f]azulene oxalate]",> 6.52
11,"CN1CCC(OC2c3ccccc3CCn3c2nc(-c2ccccc2Cl)c3C(N)=O)CC1 (centres unmarked) [Example 273, 2-(2-chlorophenyl)-4-(1-methylpiperidin-4-yloxy)-9,10-dihydro-4H-3,10a-diaza-benzo[f]azulene-1-carboxylic acid amide]",> 6.52
12,"Cc1c(-c2ccc(C3=CCCCCC3)cc2)nc2n1CCc1ccccc1C2OC1CCN(C)CC1 (centres unmarked) [Example 171, 2-(4-cyclohept-1-enylphenyl)-1-methyl-4-(1-methylpiperidin-4-yloxy)-9,10-dihydro-4H-3,10a-diaza-benzo[f]azulene]",> 7.52
13,"CCOC(=O)c1nc2n(c1C)CCc1ccccc1C2OC1CCN(C)CC1 (centres unmarked) [Example 118, 1-methyl-4-(1-methylpiperidin-4-yloxy)-9,10-dihydro-4H-3,10a-diaza-benzo[f]azulene-2-carboxylic acid ethyl ester]",> 6.00
14,"CN1CCC(OC2c3ccccc3CCn3cc(-c4ccc(CNC(=O)OC(C)(C)C)cc4)nc32)CC1 (centres unmarked) [Example 115, {4-[4-(1-methylpiperidin-4-yloxy)-9,10-dihydro-4H-3,10a-diaza-benzo[f]azulen-2-yl]-benzyl}-carbamic acid tert-butyl ester]",> 6.52
15,"Cc1c(-c2ccc(C(=O)NC3CCC(O)CC3)cc2)nc2n1CCc1ccccc1C2OC1CCN(C)CC1 (centres unmarked) [Example 216, N-(4-hydroxycyclohexyl)-4-[1-methyl-4-(1-methylpiperidin-4-yloxy)-9,10-dihydro-4H-3,10a-diaza-benzo[f]azulen-2-yl]-benzamide]",> 6.52
16,"Cc1ccccc1-c1cn2c(n1)C(OC1CCN(C)CC1)c1ccccc1CC2 (centres unmarked) [Example 8, 4-(1-methyl-piperidin-4-yloxy)-2-o-tolyl-9,10-dihydro-4H-3,10a-diaza-benzo[f]azulene]",> 6.52
17,"CN1CCC(OC2c3ccccc3CCn3c2nc(I)c3I)C1 (centres unmarked) [Example 268, 1,2-diiodo-4-(1-methylpyrrolidin-3-yloxy)-9,10-dihydro-4H-3,10a-diaza-benzo[f]azulene]",> 6.52
18,"Cc1ccc(-c2cn3c(n2)C(OC2CCN(C)CC2)c2ccccc2CC3)cn1 (centres unmarked) [Example 39, 4-(1-methylpiperidin-4-yloxy)-2-(6-methylpyridin-3-yl)-9,10-dihydro-4H-3,10a-diaza-benzo[f]azulene oxalate]",> 6.00

row,SMILES,pKi
1,"CN1CCC(OC2c3ccccc3CCn3cc(CCC4CCCCC4)nc32)CC1 (centres unmarked) [Example 95, 2-(2-cyclohexylethyl)-4-(1-methylpiperidin-4-yloxy)-9,10-dihydro-4H-3,10a-diaza-benzo[f]azulene oxalate]",> 7.52
2,"Cc1c(-c2ccc(N3CCN(C)C3=O)cc2)nc2n1CCc1ccccc1C2OC1CCN(C)CC1 (centres unmarked) [Example 132, 1-methyl-3-{4-[1-methyl-4-(1-methylpiperidin-4-yloxy)-9,10-dihydro-4H-3,10a-diaza-benzo[f]azulen-2-yl]-phenyl}-imidazolidin-2-one]",> 6.52
3,"CN1CCC(OC2c3ccccc3CCn3cc(-c4ccc(CN(C)C(=O)OC(C)(C)C)cc4)nc32)CC1 (centres unmarked) [Example 182, methyl-{4-[4-(1-methylpiperidin-4-yloxy)-9,10-dihydro-4H-3,10a-diaza-benzo[f]azulen-2-yl]benzyl}-carbamic acid tert-butyl ester]",> 6.52
4,"CN1CCC(OC2c3ccccc3CCn3cc(C(C)(C)c4ccccc4)nc32)CC1 (centres unmarked) [Example 207, 2-(1-methyl-1-phenyl-ethyl)-4-(1-methylpiperidin-4-yloxy)-9,10-dihydro-4H-3,10a-diaza-benzo[f]azulene]",> 6.00
5,"C=Cc1cn2c(n1)C(OC1CCN(C)CC1)c1ccccc1CC2 (centres unmarked) [Example 9, 4-(1-methylpiperidin-4-yloxy)-2-vinyl-9,10-dihydro-4H-3,10a-diaza-benzo[f]azulene oxalate]",> 6.00
6,"COC(=O)CSc1ccc(-c2nc3n(c2C)CCc2ccccc2C3OC2CCN(C)CC2)cc1 (centres unmarked) [Example 165, {4-[1-methyl-4-(1-methylpiperidin-4-yloxy)-9,10-dihydro-4H-3,10a-diaza-benzo[f]azulen-2-yl]-phenylsulfanyl}-acetic acid methyl ester oxalate]",> 7.52
7,"Cc1ccc(-c2cn3c(n2)C(OC2CCN(C)CC2)c2ccccc2CC3)c(C)c1 (centres unmarked) [Example 61, 2-(2,4-dimethylphenyl)-4-(1-methylpiperidin-4-yloxy)-9,10-dihydro-4H-3,10a-diaza-benzo[f]azulene]",> 6.52
8,"CN1CCC(OC2c3ccccc3CCn3cc(-c4ccc(CCOC(=O)NC(C)(C)C)cc4)nc32)CC1 (centres unmarked) [Example 200, tert-butyl-carbamic acid 2-{4-[4-(1-methylpiperidin-4-yloxy)-9,10-dihydro-4H-3,10a-diaza-benzo[f]azulen-2-yl]-phenyl}-ethyl ester]",> 6.52
9,"CN1CCC(OC2c3ccccc3CCn3cc(-c4ccc(CN5CCOC5=O)cc4)nc32)CC1 (centres unmarked) [Example 181, 3-{4-[4-(1-methylpiperidin-4-yloxy)-9,10-dihydro-4H-3,10a-diaza-benzo[f]azulen-2-yl]-benzyl}-oxazolidin-2-one]",> 6.52
10,"CN1C2CCC1CC(OC1c3ccccc3CCn3c1nc(I)c3I)C2 (centres unmarked) [Example 269, 1,2-diiodo-4-(8-methyl-8-aza-bicyclo[3.2.1]oct-3-yloxy)-9,10-dihydro-4H-3,10a-diaza-benzo[f]azulene]",> 6.00
11,"Cc1c(-c2ccc(C3CCN(C(=O)OC(C)(C)C)CC3)cc2)nc2n1CCc1ccccc1C2OC1CCN(C)CC1 (centres unmarked) [Example 177, 4-{4-[1-methyl-4-(1-methylpiperidin-4-yloxy)-9,10-dihydro-4H-3,10a-diaza-benzo[f]azulen-2-yl]-phenyl}-piperidine-1-carboxylic acid tert-butyl ester]",> 7.52
12,"CN1CCC(OC2c3ccccc3CCn3cc(SC4CCN(C(=O)OC(C)(C)C)CC4)nc32)CC1 (centres unmarked) [Example 114, 4-[4-(1-methylpiperidin-4-yloxy)-9,10-dihydro-4H-3,10a-diaza-benzo[f]azulen-2-ylsulfanyl]-piperidine-1-carboxylic acid tert-butyl ester]",> 6.52
13,"CCc1cn2c(n1)C(OC1CCN(C)CC1)c1ccccc1CC2 (centres unmarked) [Example 13, 2-ethyl-4-(1-methylpiperidin-4-yloxy)-9,10-dihydro-4H-3,10a-diaza-benzo[f]azulene oxalate]",> 6.52
14,"CN1CCC(OC2c3ccccc3CCn3cc(C(C)(C)c4ccc(Cl)cc4)nc32)CC1 (centres unmarked) [Example 117, 2-[1-(4-chlorophenyl)-1-methyl-ethyl]-4-(1-methylpiperidin-4-yloxy)-9,10-dihydro-4H-3,10a-diaza-benzo[f]azulene oxalate]",> 6.52
15,"CN1CCC(OC2c3ccccc3CCn3cc(CCc4cccs4)nc32)CC1 (centres unmarked) [Example 126, 4-(1-methylpiperidin-4-yloxy)-2-(2-thiophen-2-ylethyl)-9,10-dihydro-4H-3,10a-diaza-benzo[f]azulene oxalate]",> 6.52
16,"CN1CCC(OC2c3ccccc3CCn3cc(-c4cncs4)nc32)CC1 (centres unmarked) [Example 48, 4-(1-methylpiperidin-4-yloxy)-2-thiazol-5-yl-9,10-dihydro-4H-3,10a-diaza-benzo[f]azulene oxalate]",> 6.00
17,"CN1CCC(OC2c3ccccc3CCn3cc(C=CC4CCCCC4)nc32)CC1 (centres unmarked) [Example 59, 2-(2-cyclohexyl-vinyl)-4-(1-methylpiperidin-4-yloxy)-9,10-dihydro-4H-3,10a-diaza-benzo[f]azulene]",> 6.52
